Data as given in the supplement of paper PMC10307832.

Tests used:
Assay in all cases: relative viability (nuclei count vs DMSO), 5 days (fraction); higher = more cells survive
Seliciclib = compound: CC[C@H](CO)Nc1nc(NCc2ccccc2)c2ncn(C(C)C)c2n1 [Seliciclib]
Procedure, shortened: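 A plate was accepted only when its control CV was below 25% and the cells had doubled at least once. Viability is defined from nuclear counts as treated wells divided by vehicle wells, with the median taken across plates. That median covers lung cancer cell lines grown in 1536-well plates, dosed by pinning at five √10-spaced library-drug concentrations, and counted in MetaXpress from 4× Hoechst images after 5 days.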

Seliciclib + Trametinib = compound: CC[C@H](CO)Nc1nc(NCc2ccccc2)c2ncn(C(C)C)c2n1 [Seliciclib] + CC(=O)Nc1cccc(-n2c(=O)n(C3CC3)c(=O)c3c(Nc4ccc(I)cc4F)n(C)c(=O)c(C)c32)c1 [Trametinib] (partner 0.02 µM)
Procedure, shortened: (§1)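 Each reported value is a median over duplicate plates. It expresses relative viability: treated-well nuclei count divided by vehicle-well nuclei count. Lung cancer cell lines in 1536-well plates were dosed by pin tool a day after seeding, alone with one drug or with a fixed anchor-drug dose plus five library-drug doses (not always all listed) in √10 steps, and nuclei were counted after 5 days.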

Seliciclib + OSI-027 = compound: CC[C@H](CO)Nc1nc(NCc2ccccc2)c2ncn(C(C)C)c2n1 [Seliciclib] + COc1cccc2cc(-c3nc([C@H]4CC[C@H](C(=O)O)CC4)n4ncnc(N)c34)[nH]c12 [OSI-027] (partner 0.5 µM)
Procedure, shortened: as §1

Seliciclib + Phenformin = compound: CC[C@H](CO)Nc1nc(NCc2ccccc2)c2ncn(C(C)C)c2n1 [Seliciclib] + N=C(N)NC(=N)NCCc1ccccc1 [Phenformin] (partner 250 µM)
Procedure, shortened: as §1

Cell Line	relative viability (Seliciclib; 0.08 µM)	relative viability (Seliciclib; 0.253 µM)	relative viability (Seliciclib; 0.8 µM)	relative viability (Seliciclib; 2.53 µM)	relative viability (Seliciclib; 8 µM)	relative viability (Seliciclib + Trametinib; first compound 0.08 µM)	relative viability (Seliciclib + Trametinib; first compound 0.253 µM)	relative viability (Seliciclib + Trametinib; first compound 0.8 µM)	relative viability (Seliciclib + Trametinib; first compound 2.53 µM)	relative viability (Seliciclib + Trametinib; first compound 8 µM)	relative viability (Seliciclib + OSI-027; first compound 0.08 µM)	relative viability (Seliciclib + OSI-027; first compound 0.253 µM)	relative viability (Seliciclib + OSI-027; first compound 0.8 µM)	relative viability (Seliciclib + OSI-027; first compound 2.53 µM)	relative viability (Seliciclib + OSI-027; first compound 8 µM)	relative viability (Seliciclib + Phenformin; first compound 0.08 µM)	relative viability (Seliciclib + Phenformin; first compound 0.253 µM)	relative viability (Seliciclib + Phenformin; first compound 0.8 µM)	relative viability (Seliciclib + Phenformin; first compound 2.53 µM)	relative viability (Seliciclib + Phenformin; first compound 8 µM)
RERF-LC-KJ	0.935	0.903	0.96	0.985	0.878	0.872	0.748	0.807	0.824	0.744	0.58	0.582	0.555	0.407	0.508	0.44	0.432	0.401	0.44	0.345
SK-LU-1	1.03	1.05	1.07	0.975	0.782	0.548	0.426	0.54	0.601	0.415	0.38	0.378	0.433	0.239	0.233	0.532	0.582	0.647	0.435	0.413
SK-MES-1	0.999	1.03	0.942	1	0.857	0.478	0.482	0.55	0.602	0.504	0.63	0.655	0.593	0.462	0.45	0.686	0.755	0.619	0.672	0.635
SW 900	0.9	0.994	1.09	0.744	0.668	0.632	0.833	0.734	0.514	0.524	0.59	0.396	0.62	0.45	0.397	0.62	0.6	0.404	0.643	0.418
SW 1573	1.03	0.989	0.888	0.913	0.757	0.561	0.48	0.566	0.57	0.341	0.606	0.491	0.728	0.598	0.466	0.373	0.24	0.346	0.384	0.311
UMC-11	0.974	0.872	1.03	0.926	0.824	0.726	0.593	0.877	0.657	0.581	0.537	0.503	0.48	0.153	0.422	0.341	0.343	0.322	0.272	0.232
